In patent US20260207699A1, “PHARMACEUTICAL COMPOSITION OF KAPPA OPIOID RECEPTOR AGONIST, PREPARATION METHOD THEREFOR, AND USE THEREOF” (YICHANG HUMANWELL PHARMACEUTICAL CO., LTD., priority 2022, published 2026):
Structures can show the parent of a compound that is named as a salt.

Experiments:
[1] = Stability of salts of compound of formula (II), high temperature test (40° C.); assay type: physicochemical; conditions: for stability at high temperature of 40° C. and under light of 4500 Lux: up to 30 days
Description: (§1) Samples of acetate salt, citrate salt, and phosphate salt of the compound of formula (II) were placed for investigation respectively, and the investigation conditions were high temperature test (40° C.) and light (4500 Lux). The investigation period was 5 days, 10 days and 30 days.

[2] = Stability of salts of compound of formula (II), light (4500 Lux); assay type: physicochemical
Description: as §1

mechanical allodynia = test: Rat postoperative analgesic model, mechanical allodynia (paw withdrawal threshold); assay type: in vivo, Sprague-Dawley rats; conditions: 3 mg/kg
Description: (§2) Test sample: Prescription 5 of Example 9 of the present application was used as the test sample.
Sprague-Dawley rats, SPF grade, male, weighing 200 g-220 g, raised in a constant temperature environment, temperature (20±2) ° C., humidity 40%-70%; the raising environment was with a light rhythm 12 h:12 h (6:00-18:00), free feeding and water, and adaptive feeding for 1 week.
Animals were anesthetized with Zoletil (6 mg/kg)+xylazine ([…], i.p.). The toes of the animals were squeezed to confirm that the animals were fully anesthetized prior to surgery. The skin of the surgical area on the plantar site of the left hind foot was disinfected three times using iodophor and 70% ethanol. Wait until the skin was dry, to start the surgery. An incision about 1 cm long was made longitudinally toward the toe from the heel position. After incising the skin, the flexor digitorum brevis was lifted and a longitudinal blunt injury was caused. After pressing to stop bleeding, the wound was sutured. After surgery, the animals were placed on electric blankets, and returned to the cage when the animals were fully awake (free to move).
Twenty-four hours after surgery, the baseline test of mechanical allodynia was performed on rats. […] At the same time, 10 rats of the same batch were taken as the control of the normal group. Mechanical allodynia tests were performed at 0.5 h, 1 h, and 1.5 h after administration, respectively.
The rats were individually placed in a plexiglass box with a grid at the bottom to ensure that the rat feet could be tested. Rats would acclimatize for 15 minutes prior to the test. After completion of the acclimatizing, test fiber (Touch-Test Sensory Evaluator) was used to test at the central plantar site of the left hind foot of the rats. In the test, the test fiber was pressed vertically against the skin and force was applied to bend the fiber for 6-8 seconds, with 5 seconds apart between each test. In the test, an animal's rapid withdrawal of the foot was noted as a pain response.

[3] = tested on: chloroquine-induced pruritus; test: Chloroquine-induced pruritus model of ICR mice; assay type: in vivo; conditions: 3 mg/kg subcutaneously
Description: as §2
ICR mice, SPF grade, male, weighing 30 g-40 g, raised in a constant temperature environment, temperature (20±2) ° C., humidity 40%-70%; the raising environment was with a light rhythm 12 h:12 h (6:00-18:00), free feeding and water, and adaptive feeding for 1 week.
The mice were shaved on the back of the neck. After shaving, the animals were weighed, and the mice were randomly divided into 5 groups of 10 animals per group according to their body weight, which were the vehicle control group; ICI204448 (CAS No.: 121264-04-8, positive control drug) control group (3 mg/kg); Test group 1 (0.1 mg/kg); Test group 2 (0.5 mg/kg); and Test group 3 (1.5 mg/kg). After the corresponding drugs were administered subcutaneously according to groups, 400 μg of chloroquine, a pruritus model inducer, was intradermally injected into the shaved area of the back of the neck of mice. Following intradermal injection of chloroquine, mice were individually placed in transparent plexiglass boxes and the number of scratches over 30 min was counted.

[4] = Conventional injection, sterilization according to conventional requirements; assay type: physicochemical; conditions: prepared into a conventional injection
Description: After the cooled pharmaceutical solution is centrifuged at 3000 rpm to 10000 rpm, the precipitate is collected and detected by mass spectrometry (mass spectrometry conditions: chromatographic column: ACQUITY UPLC BEH C8, 50 mm×2.1 mm, 1.7 μm (20180306-C8-08); mobile phase A: 0.1% formic acid/water; mobile phase B: 0.1% formic acid/acetonitrile; flow rate: 0.2 ml/min; column temperature: 30° C.; detector wavelength: UV-210 nm; QDa; cone voltage: positive scan 10 volts, negative scan 5 volts; capillary voltage: plus 1.5 kV, minus 0.5 kV). Based on the detected MS values, it is speculated that the white flocculent precipitate is a degradation impurity as shown in the following formula: […]

SMILES | HPLC purity (%) ([1]; 0 days) | HPLC purity (%) ([1]; 40° C., 5 days) | HPLC purity (%) ([1]; 40° C., 10 days) | HPLC purity (%) ([1]; 40° C., 30 days) | stability at high temperature of 40° C. and under light of 4500 Lux [1] | HPLC purity (%) ([2]; 5 days) | HPLC purity (%) ([2]; 10 days) | HPLC purity (%) ([2]; 30 days) | Pain inhibition rate (mechanical allodynia; 0.5 hours after administration) | Pain inhibition rate (mechanical allodynia; 1 hours after administration) | Pain inhibition rate (mechanical allodynia; 1.5 hours after administration) | Inhibition rate ([3]; scratches over 30 min) | Number of scratches (mean ± standard error) ([3]; scratches over 30 min after 400 μg chloroquine intradermal) | appearance after sterilization when cooled to room temperature [4]
CC(C)C[C@@H](NC(=O)[C@@H](Cc1ccccc1)NC(=O)[C@H](N)[C@H](C)c1ccccc1)C(=O)N[C@H](CCCCN)C(=O)N1CCC(N)(C(=O)O)C1 (stereo partly drawn) [Acetate salt (1:1)] | 97.9% | 97.7% | 97.5% | 97.1% | better stability | 97.9% | 97.8% | 97.6% | – | – | – | – | – | –
CN1CC[C@]23c4c5ccc(O)c4O[C@H]2[C@@H](O)C=C[C@H]3[C@H]1C5 [Morphine, morphine] | – | – | – | – | – | – | – | – | 122.5% | 84.2% | 27.9% | – | – | –
CC(C)C[C@@H](NC(=O)[C@@H](Cc1ccccc1)NC(=O)[C@H](N)[C@H](C)c1ccccc1)C(=O)N[C@H](CCCCN)C(=O)N1CCC(N)(C(=O)O)C1 (stereo partly drawn) [Citrate salt (1:1)] | 96.8% | 95.7% | 94.6% | 93.5% | degraded in different degrees | 96.2% | 95.5% | 94.7% | – | – | – | – | – | –
CN(C(=O)Cc1ccc(Cl)c(Cl)c1)C(CN1CCCC1)c1cccc(OCC(=O)O)c1 (stereo not drawn) [ICI204448] | – | – | – | – | – | – | – | – | – | – | – | 97.4% | 7.3 ± 2.43 | –
CC(C)C[C@@H](NC(=O)[C@@H](Cc1ccccc1)NC(=O)[C@H](N)[C@H](C)c1ccccc1)C(=O)N[C@H](CCCCN)C(=O)N1CCC(N)(C(=O)O)C1 (stereo partly drawn) [Phosphate salt (1:1)] | 96.5% | 95.6% | 94.3% | 92.3% | degraded in different degrees | 96.2% | 95.1% | 94.2% | – | – | – | – | – | –
CC(C)C[C@@H](NC(=O)[C@@H](Cc1ccccc1)NC(=O)[C@H](N)[C@H](C)c1ccccc1)C(=O)N[C@H](CCCCN)C(=O)N1CCC(N)(C(=O)O)C1 (stereo partly drawn) [compound (II)] | – | – | – | – | – | – | – | – | – | – | – | – | – | a flocculent precipitate is separated out
